Values of other authors as cited in paper PMC9441020 (Journal of medicinal chemistry, 2022).

Assays:
[1] = test system: HIV-1 INST
[2] = test system: HCV NS5B

Structure (SMILES)	inhibition of HIV-1 INST [1]	inhibition of HCV NS5B [2]
O=C(O)c1nc(-c2cccs2)nc(O)c1O [compound 10, 5-Hydroxy-6-oxo-2-(thiophen-2-yl)-1,6-dihydropyrimidine-4-carboxylic acid]	did not inhibit	effectively inhibiting
O=C(NCc1ccccc1)c1nc(-c2cccs2)nc(O)c1O [compound 11, N-Benzyl-5-hydroxy-6-oxo-2-(thiophen-2-yl)-1,6-dihydropyrimidine-4-carboxamide]	potently inhibited	without significantly inhibiting
